{
  "source": "paper PMC5315687",
  "about": "(ACS chemical biology, 2017)",
  "target": "T1, His6-MibD (Microbispora sp. ATCC PTA-5024, UniProt W2ESX4)",
  "T1 sequence (W2ESX4 1-215)": "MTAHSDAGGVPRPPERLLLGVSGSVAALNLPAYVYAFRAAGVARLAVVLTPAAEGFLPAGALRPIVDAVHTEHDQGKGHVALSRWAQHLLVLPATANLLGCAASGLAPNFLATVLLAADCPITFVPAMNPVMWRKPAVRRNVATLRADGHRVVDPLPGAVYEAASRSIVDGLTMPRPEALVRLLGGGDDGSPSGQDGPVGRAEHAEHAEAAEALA",
  "assay": "flavin isolated from heat-denatured protein, MALDI-TOF MS",
  "format": "binding",
  "settings": "non-covalent, co-purified",
  "data": [
    {"compound": "Cc1cc2nc3c(=O)[nH]c(=O)nc-3n(C[C@H](O)[C@H](O)[C@H](O)COP(=O)(O)OP(=O)(O)OC[C@H]3O[C@@H](n4cnc5c(N)ncnc54)[C@H](O)[C@@H]3O)c2cc1C", "note": "[FAD]", "values": [
      {"measurement": "flavin isolated from heat-denatured protein, MALDI-TOF MS", "value": "The isolation of FAD from His6-MibD suggests the cofactor is not covalently linked."}
    ]}
  ]
}
